Data from US20250188030A1, “Biphenyl and Phenylpyridine Compounds” (Pfizer Inc., priority 2023, published 2025).
Read-outs that look alike come from different tables or passages of the source. Each block holds one molecule with its values, some of them ahead of it.

Experiments:
H3K9AC (HT1080 cells) = assay: H3K9AC Sandwich ELISA Assay in HT1080 cells (KAT2A primary cell-based screening assay); parameters: species or system Human
Experimental: Human fibrosarcoma cell line HT1080 was obtained from American Type Culture Collection (ATCC), Manassas, VA USA, Cat. HT-1080 (ATCC® CCL-121™). Cells were cultured in MEM (Thermo Fisher Scientific/Gibco Life Technologies Cat. #11-095-080) plus 10% (v/v) FBS (Thermo Fisher Scientific/Gibco Life Technologies Cat. #26140-079) and 1% Penicillin-Streptomycin (Thermo Fisher Scientific/Gibco Life Technologies Cat. #15070063) at 37° C. in 5% CO2.
HT1080 cells were trypsinized, cell viability count performed, and cells suspended in complete media at 100,000 cells/ml. Cells were seeded (100 μl/well) into Greiner Bio-One CELLSTAR 96-well polystyrene flat bottom cell culture microplate (Thermo Fisher Scientific Cat. #07-000-162) at a density of 10,000 cells/well. Cells were incubated for 16 hours at 37° C. at 5% CO2. Compound dilution plates were prepared in 96-well, clear U-bottom, polypropylene plates (Corning 3365) in 100% DMSO at 10 mM stock concentration in duplicate, using 10-point serial dilution (1:3). Compounds were diluted to 1:200 in growth medium and 25 μl from intermediate compound plates were added to each well of the cell plates using a Beckman FX liquid handling system such that the highest compound concentration tested was 10 μM final, with a 0.1% final DMSO concentration in the total volume of 125 μl. Plates were incubated for 24 hours at 37° C. and 5% CO2. Plates were centrifuged at 2500 rpm for 5 minutes and medium was removed. 100 μL 0.4N HCL (Thermo Fisher Scientific Cat #SA56-1) was added to each well and plates were shaken for 60 minutes at 4C to lyse cells. 38ul 0.4N Sodium phosphase dibasic pH12.5 (Thermo Fisher Scientific Cat #S375-212) containing 2 mM Sodium Butyrate (Millipore TR1008G) and 3 mM Phenylmethanesulfonyl-fluoride (Sigma 93482) was added to each well to neutralize lysates.
Cell lysate plates were mixed for 5 minutes at room temperature on shaker and immediately frozen at −80C overnight. Cell lysates were thawed and 50 μL/well was transferred to ELISA plates (Total Histone H3 mouse (Cell Signaling Technology Cat #14269) mAb-coated Corning 1×8 strip-well, white, 96-well plates (Corning 2485)). After 2 hours room temperature incubation, plates were washed six times with PBS/0.05% Tween Wash Buffer using a BioTek plate washer. 50 μL of Histone H3K9AC rabbit detection mAb (Cell Signaling Technology Cat #9649S) diluted 1:1000 in blocking buffer (Thermo Fisher Scientific Cat #37542) was added to each well and incubated for 2 hours at room temperature. After washing, 50 μL anti-rabbit IgG, HRP-Linked antibody (Cell Signaling Technology Cat #7074) diluted 1:1000 in blocking buffer was added to each well and incubated for 60 minutes at room temperature. Following incubation, plates were washed as described above. 50 μL of luminescent GLO substrate reagent (R&D System Cat #DY993) was added to each well and incubated for 10 minutes at room temperature. Plates were read on the PHERAstar plate reader using the 96-well with Luminescent reading mode. IC50 values were calculated using a four-parameter fit with GraphPad Prism version 9.5.1 or in-house modified IDBS ActivityBase data analyzing package.

KAT2A = KAT2A (Homo sapiens (Human), UniProt Q92830); assay: KAT2A acetyltransferase biochemical assay (RapidFire mass spectrometry, AcCoA to CoA)
[1] = read-out: KAT2A Ki at 1 μM AcCoA, 5 μM H3 1-21 peptide, 0.5 nM KAT2A, 90-minute reaction
[2] = Homo sapiens, HT-1080, H3K9AC sandwich ELISA
[3] = KAT2A Ki at 1 μM AcCoA, 5 μM H3 1-21 peptide, 0.5 nM KAT2A, 90-minute reaction

Sequence of KAT2A (Q92830 whole entry): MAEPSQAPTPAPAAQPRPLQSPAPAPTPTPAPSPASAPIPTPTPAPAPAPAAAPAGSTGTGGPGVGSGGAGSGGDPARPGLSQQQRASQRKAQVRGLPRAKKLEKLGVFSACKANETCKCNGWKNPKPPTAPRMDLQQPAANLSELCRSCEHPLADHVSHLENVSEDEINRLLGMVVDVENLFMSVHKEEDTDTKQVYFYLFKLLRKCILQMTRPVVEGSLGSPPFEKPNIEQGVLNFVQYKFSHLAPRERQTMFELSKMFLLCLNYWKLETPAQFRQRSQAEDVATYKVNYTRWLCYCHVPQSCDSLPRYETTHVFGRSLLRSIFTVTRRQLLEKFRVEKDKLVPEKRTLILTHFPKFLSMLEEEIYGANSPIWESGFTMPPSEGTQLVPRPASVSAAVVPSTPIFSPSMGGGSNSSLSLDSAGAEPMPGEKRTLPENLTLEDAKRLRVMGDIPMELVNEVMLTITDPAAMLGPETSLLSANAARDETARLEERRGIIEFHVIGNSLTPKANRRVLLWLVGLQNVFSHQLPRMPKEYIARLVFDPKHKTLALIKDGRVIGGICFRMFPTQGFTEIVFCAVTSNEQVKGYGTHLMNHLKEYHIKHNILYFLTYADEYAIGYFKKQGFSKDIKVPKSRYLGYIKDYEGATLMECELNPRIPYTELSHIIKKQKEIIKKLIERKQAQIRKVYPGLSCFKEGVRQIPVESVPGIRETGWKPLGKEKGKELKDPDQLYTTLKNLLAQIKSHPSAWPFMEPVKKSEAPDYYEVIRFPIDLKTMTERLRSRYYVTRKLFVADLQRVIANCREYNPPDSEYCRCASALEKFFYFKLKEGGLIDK

Compound: CCc1c(F)cccc1-c1cc(C(C)(C)C(=O)NS(=O)(=O)C(C)C)ccc1O[C@@H]1CC[C@@H](NC(=O)[C@@]2(F)CNCC(C)(C)C2)C1 (single isomer, unassigned) [Example C44]
IC50 (H3K9AC (HT1080 cells); H3K9AC sandwich ELISA): > 1000 nM
Ki (KAT2A; [1]): > 99.9 nM

Compound: CCS(=O)(=O)NC(=O)Cc1ccc(O[C@@H]2CC[C@@H](NC(=O)[C@@]3(F)CNC4(CCC4)C3)C2)c(-c2ccccc2C(C)C)c1 [Example C53, (7S)-N-[(1R,3R)-3-({5-[2-(ethanesulfonamido)-2-oxoethyl]-2′-(propan-2-yl)[1,1′-biphenyl]-2-yl}oxy)cyclopentyl]-7-fluoro-5-azaspiro[3.4]octane-7-carboxamide]
IC50 (H3K9AC (HT1080 cells); [2]): 7 nM
Ki (KAT2A; [1]): 0.1 nM

Compound: CC1(C)C[C@](F)(C(=O)N[C@@H]2CC[C@@H](Oc3ccc(C(C)(C)C(=O)NS(=O)(=O)N4CCC4)cc3-c3cccc(F)c3C3CCC3)C2)CN1 (single isomer, unassigned) [Example C8]
IC50 (H3K9AC (HT1080 cells); [2]): 142 nM
Ki (KAT2A; [1]): 13.6 nM

Compound: CC(C)(C(N)=O)c1ccc(O[C@@H]2CC[C@@H](NC(=O)[C@]3(F)CNC4(CCC4)C3)C2)c(-c2cccc(F)c2C2CCC2)c1 (single isomer, unassigned) [Example C15]
IC50 (H3K9AC (HT1080 cells); [2]): > 1000 nM
Ki (KAT2A; [1]): 1270 nM

Compound: CCc1ccccc1-c1cc(CC(=O)NS(=O)(=O)C(C)C)ccc1O[C@@H]1CC[C@@H](NC(=O)[C@@]2(F)CNC3(CCC3)C2)C1 [Example C52, (7S)-N-[(1R,3R)-3-({2′-ethyl-5-[2-oxo-2-(propane-2-sulfonamido)ethyl][1,1′-biphenyl]-2-yl}oxy)cyclopentyl]-7-fluoro-5-azaspiro[3.4]octane-7-carboxamide]
IC50 (H3K9AC (HT1080 cells); [2]): 8.5 nM
Ki (KAT2A; [1]): 0.48 nM

Compound: CCS(=O)(=O)NC(=O)C(C)(C)c1ccc(O[C@@H]2CC[C@@H](NC(=O)C3(F)CNC4(CCC4)C3)C2)c(-c2cccc(F)c2C2CCC2)c1 (single isomer, unassigned) [Example B1]
IC50 (H3K9AC (HT1080 cells); H3K9AC sandwich ELISA): 562 nM
Ki (KAT2A; [3]): 80.5 nM

Compound: CC[C@](C)(C(=O)O)c1ccc(O[C@@H]2CC[C@@H](NC(=O)[C@]3(F)CNC4(CCC4)C3)C2)c(-c2cccc(F)c2C2CCC2)c1 (single isomer, unassigned) [Example A10]
IC50 (H3K9AC (HT1080 cells); H3K9AC sandwich ELISA): > 1000 nM
Ki (KAT2A; [1]): > 1000 nM

Compound: CC1(C)CNC[C@](F)(C(=O)N[C@@H]2CC[C@@H](Oc3ccc(C(C)(C)C(=O)O)cc3-c3cccc(F)c3C3CCC3)C2)C1 (single isomer, unassigned) [Example A15]
IC50 (H3K9AC (HT1080 cells); H3K9AC sandwich ELISA): 296 nM
Ki (KAT2A; [1]): > 1000 nM

Compound: CC(C)(C(=O)NS(C)(=O)=O)c1ccc(O[C@@H]2CC[C@@H](NC(=O)[C@@]3(F)CNC4(CCC4)C3)C2)c(-c2cccc(F)c2C2CC2)c1 (single isomer, unassigned) [Example C13]
IC50 (H3K9AC (HT1080 cells); [2]): 942 nM
Ki (KAT2A; [1]): 23.4 nM

Compound: CC(C)S(=O)(=O)NC(=O)C(C)(C)c1ccc(O[C@@H]2CC[C@@H](NC(=O)[C@@]3(F)CNC4(CCCC4)C3)C2)c(-c2cccc(F)c2C2CCC2)c1 (single isomer, unassigned) [Example B24]
IC50 (H3K9AC (HT1080 cells); [2]): 0.9 nM
Ki (KAT2A; [1]): 0.09 nM

The next lines start with the values.

IC50 (H3K9AC (HT1080 cells); H3K9AC sandwich ELISA): 6 nM
Ki (KAT2A; [1]): 0.05 nM
Compound: CC(C)S(=O)(=O)NC(=O)Cc1ccc(O[C@@H]2CC[C@@H](NC(=O)[C@@]3(F)CNCC(C)(C)C3)C2)c(-c2cccc(F)c2C2CCC2)c1 (single isomer, unassigned) [Example C77]

IC50 (H3K9AC (HT1080 cells); [2]): 0.6 nM
Ki (KAT2A; [1]): 0.04 nM
Compound: CC1(S(=O)(=O)NC(=O)Cc2ccc(O[C@@H]3CC[C@@H](NC(=O)[C@@]4(F)CNC5(CCCC5)C4)C3)c(-c3cccc(F)c3C3CCC3)c2)CC1 (single isomer, unassigned) [Example C69]

IC50 (H3K9AC (HT1080 cells); H3K9AC sandwich ELISA): 2.4 nM
Ki (KAT2A; [1]): 0.08 nM
Compound: CCc1c(F)cccc1-c1cc([C@@H](C)C(=O)NS(=O)(=O)C2(C)CC2)ccc1O[C@@H]1CC[C@@H](NC(=O)[C@@]2(F)CNC3(CCC3)C2)C1 (single isomer, unassigned) [Example C83]

IC50 (H3K9AC (HT1080 cells); H3K9AC sandwich ELISA): > 1000 nM
Ki (KAT2A; [1]): > 99.9 nM
Compound: CC(C)S(=O)(=O)NC(=O)Cc1cccc(O[C@@H]2CC[C@@H](NC(=O)[C@@]3(F)CNC4(CCC4)C3)C2)c1-c1cccc(F)c1C1CCC1 (atropisomer, axis not shown) [Example I18, (7S)-N-[(1R,3R)-3-({(1ψ)-2′-cyclobutyl-3′-fluoro-6-[2-oxo-2-(propane-2-sulfonamido)ethyl][1,1′-biphenyl]-2-yl}oxy)cyclopentyl]-7-fluoro-5-azaspiro[3.4]octane-7-carboxamide]

IC50 (H3K9AC (HT1080 cells); [2]): 28.6 nM
Ki (KAT2A; [1]): 1.21 nM
Compound: CN1CC(C)(C)C[C@H]1C(=O)N[C@H]1C[C@H](Oc2ccc(C(=O)O)cc2-c2ccccc2C2CCC2)C[C@H]1O (single isomer, unassigned) [Example K2, 2′-cyclobutyl-6-({(1ξ,3ξ,4ξ)-3-hydroxy-4-[(1,4,4-trimethyl-L-prolyl)amino]cyclopentyl}oxy)[1,1′-biphenyl]-3-carboxylic acid]

IC50 (H3K9AC (HT1080 cells); H3K9AC sandwich ELISA): > 1000 nM
Ki (KAT2A; [1]): > 99.9 nM
Compound: CCc1c(F)cccc1-c1cc(CC(=O)NS(=O)(=O)C2(C)CC2)ccc1O[C@@H]1CC[C@@H](NC(=O)[C@@]2(F)CNCC(C)(C)C2)C1 (single isomer, unassigned) [Example C56]

IC50 (H3K9AC (HT1080 cells); [2]): 3130 nM
Ki (KAT2A; [1]): 163 nM
Compound: CN1CC2(CCCC2)C[C@@H]1C(=O)N[C@@H]1CC[C@@H](Oc2cccc(C(=O)NS(C)(=O)=O)c2-c2cccc(F)c2C2CCC2)C1 (atropisomer, axis not shown) [Example I11, (3ξ)-N-[(1R,3R)-3-({(1ψ)-2′-cyclobutyl-3′-fluoro-6-[(methanesulfonyl)carbamoyl][1,1′-biphenyl]-2-yl}oxy)cyclopentyl]-2-methyl-2-azaspiro[4.4]nonane-3-carboxamide]

IC50 (H3K9AC (HT1080 cells); H3K9AC sandwich ELISA): 790 nM
Ki (KAT2A; [3]): 61.6 nM
Compound: C[C@@H](C(=O)O)c1nn(C)cc1-c1ccc(O[C@@H]2CC[C@@H](NC(=O)[C@]3(F)CNC4(CCC4)C3)C2)c(-c2cccc(F)c2C2CCC2)c1 (single isomer, unassigned) [Example J2]

IC50 (H3K9AC (HT1080 cells); H3K9AC sandwich ELISA): > 1000 nM
Ki (KAT2A; [1]): 0.08 nM
Compound: CC1(C)CNC[C@](F)(C(=O)N[C@@H]2CC[C@@H](Oc3ccc(CC(=O)NS(=O)(=O)C4(C)CC4)cc3-c3cccc(F)c3C3CCC3)C2)C1 (single isomer, unassigned) [Example C78]

IC50 (H3K9AC (HT1080 cells); [2]): 19 nM
Ki (KAT2A; [1]): 1.08 nM
Compound: CN1CC(C)(C)C[C@H]1C(=O)N[C@@H]1CC[C@@H](Oc2ccc(C(=O)O)cc2-c2cccc(F)c2C2CCC2)C1 [Example D6, 2′-cyclobutyl-3′-fluoro-6-({(1R,3R)-3-[(1,4,4-trimethyl-L-prolyl)amino]cyclopentyl}oxy)[1,1′-biphenyl]-3-carboxylic acid]

IC50 (H3K9AC (HT1080 cells); [2]): 7.1 nM
Ki (KAT2A; [1]): 13.7 nM
Compound: CC(C)S(=O)(=O)NC(=O)c1cccc(O[C@@H]2CC[C@@H](NC(=O)[C@@]3(F)CNC4(CCC4)C3)C2)c1-c1cccc(F)c1C1CCC1 (atropisomer, axis not shown) [Example I19, (7S)-N-[(1R,3R)-3-({(1ψ)-2′-cyclobutyl-3′-fluoro-6-[(propane-2-sulfonyl)carbamoyl][1,1′-biphenyl]-2-yl}oxy)cyclopentyl]-7-fluoro-5-azaspiro[3.4]octane-7-carboxamide]

IC50 (H3K9AC (HT1080 cells); H3K9AC sandwich ELISA): 489 nM
Ki (KAT2A; [1]): 75.7 nM
Compound: CN1CC(C)(C)C[C@H]1C(=O)N[C@H]1C[C@H](Oc2cccc(CC(=O)O)c2-c2cccc(F)c2C2CCC2)C[C@H]1O (atropisomer, axis not shown) [Example K5, [(1ψ)-2′-cyclobutyl-3′-fluoro-6-({(1S,3R,4S)-3-hydroxy-4-[(1,4,4-trimethyl-L-prolyl)amino]cyclopentyl}oxy)[1,1′-biphenyl]-2-yl]acetic acid]

IC50 (H3K9AC (HT1080 cells); [2]): 83.5 nM
Ki (KAT2A; [1]): 8.87 nM
Compound: [2H]C([2H])([2H])N1CC(C)(C)C[C@H]1C(=O)N[C@@H]1CC[C@@H](Oc2ccc(C(C)(C)C(=O)O)cc2-c2cccc(F)c2C2CCC2)C1 [Example D15, 2-(2′-cyclobutyl-6-{[(1R,3R)-3-{[4,4-dimethyl-1-(^2H3)methyl-L-prolyl]amino}cyclopentyl]oxy}-3′-fluoro[1,1′-biphenyl]-3-yl)-2-methylpropanoic acid]
